From paper PMC8861050, “Design, synthesis and evaluation of novel 2-oxoindoline-based acetohydrazides as antitumor agents” (Scientific Reports, 2022)
Read-outs that look alike come from different tables or passages of the source.

What was measured:
[1] = test system: PC3 (prostate cancer); design: method as in PMID 30054973; conditions: positive control, for relative comparison; read-out: Cytotoxicity (IC50) PC3; cited from earlier work
[2] = test system: NCI-H23 (lung cancer); design: method as in PMID 30054973; conditions: positive control, for relative comparison; read-out: Cytotoxicity (IC50) NCI-H23; cited from earlier work
[3] = test system: SW620 (colon cancer); assay: SRB cytotoxicity assay, SW620; format: cell-based; conditions: Homo sapiens, SW-620, 48 h incubation, mean ± SEM of 3 independent experiments
Text: (§1) Three human cancer cell lines: colon cancer (SW620), prostate cancer (PC3), and lung cancer (NCI-H23) were used for sceening the cytotoxicity of the compounds. The cancer cells were purchased from American Type Culture Collection (Manassas, VA, USA). Other reagents/media for cell culture were obtained from GIBCO (Grand Island, New York, USA). The testing cancer cells were culture in Dulbecco’s Modified Eagle Medium until confluence. Then, they were trypsinized and suspended at the level of 3 × 10^4 cells/mL of cell culture medium. On day 0, cancer cells were seeded at a volume of 180 µL/well of 96-well plates and incubated for 24 h at 37 °C in a 5% CO2 incubator. On day 1, 20 µL of various concentrations of testing compounds were added to each well of the 96-well plates. Chemicals were dissolved in dimethyl sulfoxide (DMSO, stock) and diluted in culture medium (1% DMSO) before adding to the culture. After 48 h incubation, the sulforhodamine B assay was used for cell density determination with slight modifications[22]–[26]. The Probits were used for the calculation of IC50 values. The reported IC50 were the averages of three independent screening (SD ≤ 10%)[27].
(§2) Two series of compounds synthesized (4a–p and 5a–f) were evaluated for their cytotoxicity against three human cancer cell lines, including SW620 (colon cancer), PC3 (prostate cancer), NCI-H23 (lung cancer), using SRB method as described previously[22] with slight modifications[23]–[26].

[4] = test system: PC3 (prostate cancer); assay: SRB cytotoxicity assay, PC3; format: cell-based; conditions: Homo sapiens, 48 h incubation, mean ± SEM of 3 independent experiments
Text: as §1, §2

[5] = test system: NCI-H23 (lung cancer); assay: SRB cytotoxicity assay, NCI-H23; format: cell-based; conditions: Homo sapiens, 48 h incubation, mean ± SEM of 3 independent experiments
Text: as §1, §2

[6] = Cytotoxicity on normal mesenchymal stem cells; format: cell-based; conditions: human bone marrow-derived mesenchymal stem cells; mean ± SEM; read-out: Cytotoxicity (IC50) MSCs
Description: Overally, 5-fluorinated compounds (4i–p and 5d–f) were slightly more cytotoxic than non-fluorinated ones (4a–h, 5a–c). For compounds in series 4a–p, it was observed that, electron-releasing substituents (–OCH3, OH) were generally better than electron-withdrawing groups (–Cl) for cytotoxicity. Especially, compounds with 2-OH substituents produced the best cytotoxicity. The addition of either 4-OCH3 or 3-allyl groups further enhanced cytotoxicity of the related compounds (4g, 4h and 4o, 4p).

[7] = target: T1, caspase-3 (Homo sapiens, UniProt P42574); assay: Caspase-3 activation assay in U937 cell extract; format: cell-based; conditions: U937 cells, 24 h, 50 µM
T1 construct: endogenous in cells; host or cells: U937 human lymphoma cells
T1 sequence (P42574 1-277): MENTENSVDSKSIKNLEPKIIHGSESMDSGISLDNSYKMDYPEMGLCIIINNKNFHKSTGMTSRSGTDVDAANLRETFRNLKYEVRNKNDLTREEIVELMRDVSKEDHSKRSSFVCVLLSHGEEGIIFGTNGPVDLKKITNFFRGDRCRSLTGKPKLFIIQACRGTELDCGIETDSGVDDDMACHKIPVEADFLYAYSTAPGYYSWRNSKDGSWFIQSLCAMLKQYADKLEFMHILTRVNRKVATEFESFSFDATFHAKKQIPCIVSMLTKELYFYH
Description: Caspase-3 activation assay
Caspase activity was measured by using caspase 3 assay kit according to the manufacturer’s instructions (abcam, MA, USA). U937 human lymphoma cells (5 × 10^5/mL per well) were plated in 6-well culture plates and allowed to grow for 24 h. The cells were treated with compounds for 24 h, and then harvested. The harvested cells were washed twice with ice-cold PBS and treated with lysis buffer included in the kit. Cell lysate (100 µg/50 µL) was mixed with 50 µL of 2 × reaction buffer and 5 µL of DEVD-p-NA substrate as the instruction of caspase-3 assay kit (Abcam, cat. N. ab39401). […] was measured after one-hour incubation.
Next, we selected 5 representative compounds, including 4f, 4h, 4n, 4o and 4p, to investigate their effects on the caspase activity, cell cycle, and apoptosis. […] Thus, we used the extract of U937 cells in caspase-3 activation assay, referring to our previous study. […] However, our compounds unexpectedly were not recorded to activate caspase-3 activity. […] Next, we investigated the effect of PAC-1 and our chemicals on cell cycle and apoptosis by using U937 cells. In the cell cycle analysis, U937 cells were treated with 50 µM of compounds for 24 h, stained with propidium iodide (PI) in the presence of RNase, and then analyzed for DNA content by using flow cytometry. PAC-1 was used in parallel as a positive control.

[8] = test system: U937 human lymphoma cells; assay: Cell cycle analysis (PI, flow cytometry); format: cell-based; conditions: 50 µM, 24 h
Description: U937 human lymphoma cells (5 × 10^5/mL per well) were plated in 6-well culture plates and allowed to grow for 24 h. In our first experiment, we examined the effects of 4f, 4h, 4n, 4o, 4p, and PAC-1 on cell cycles at 50 µM. In the second experiment, we examined the dose-dependent effect of 4o at 5, 10, and 30 µM and PAC-1 at 30 µM on cell cycles. The cells were treated with compounds for 24 h, and then harvested. The harvested cells were washed twice with ice-cold PBS, fixed in 75% ice-cold ethanol, and stained with propidium iodide (PI) in the presence of RNase at room temperature for 30 min. The stained cells were analyzed for DNA content using a FACScalibur flow cytometer (BD Biosciences, San Jose, CA, USA) and the data were processed using Cell Quest Pro software (BD Biosciences).
(§3) Figure 3 Cell cycle analysis after treatment with some compounds. U937 human lymphoma cells were treated with compounds (50 µM) for 24 h. The harvested cells were stained with propidium iodide (PI) in the presence of RNase and then were analyzed for DNA content by using flow cytometry. Ten thousand cells were acquired (n = 3). UN untreated, VH vehicle (DMSO. 0.1%). Representative histograms (A) and bar graphs (B) are shown. p values were calculated using one-way ANOVA in GraphPad Software (San Diego, CA, USA). *p < 0.01 vs VH control.
as §3, with “Figure 4” for “Figure 3”, “analysis under” for “analysis after”, “with different concentrations of compound 4o.” for “with some compounds.”, “with compound 4o at 5, 10 and 30 µM or PAC-1 (30” for “with compounds (50”

[9] = test system: SW620 cells; assay: Morphology changes of treated cells; format: cell-based, human; conditions: 24 h treatment (50 μM; 4o 5, 10, 30 μM; PAC-1 30 μM)
Description: (§4) Figure 7 Morphology changes of cells treated with compound 4f, 4h, 4n, 4o, 4p or PAC-1. SW620 at 2.5 × 10^5 cells/mL (500 µL in 24 well) were incubated for 24 h and then further treated with compounds or PAC-1 (50 μM) for 24 h. Cells were photographed using an Imaging Device (Celldiscoverer 7) with ×20 (A) and ×40 (B) lens. Scale bar: […]. UN untreated, VH vehicle (DMSO. 0.1%). Representative images are shown.
as §4, with “Figure 8” for “Figure 7”, “compound 4o” for “compound 4f, 4h, 4n, 4o, 4p”, “with 4o (5, 10, and 30 μM)” for “with compounds”, “PAC-1 (30” for “PAC-1 (50”

[10] = test system: U937 cells; design: method as in PMID 34674294; conditions: 48 h, as reported, read-out: IC50 in 48-h-cytotoxicity assay; cited from earlier work

SMILES	IC50 [1] [µM]	IC50 [2] [µM]	IC50 [3] [µM]	IC50 [4] [µM]	IC50 [5] [µM]	IC50 [6] [µM]	Caspase-3 activation [7]	Effect on cell cycle distribution [8]	Cellular morphology [9]	IC50 [10] [µM]
O=c1[nH]cc(F)c(=O)[nH]1 [Compound 5-FU, 5-Fluorouracil]	13.6 ± 0.46	13.5 ± 3.92								
C=CCc1cccc(/C=N/NC(=O)CN2CCN(Cc3ccccc3)CC2)c1O [PAC-1, reference compound]			5.43 ± 0.18	4.11 ± 0.39	5.11 ± 0.22	9.22 ± 0.12	activated caspase-3	accumulation of cells in G0/G1 phase	showed morphology of apoptotic cells	8.47
